Each structure is given as a SMILES string.

Broadly, the IC50 is the concentration that gives 50% inhibition. By Inhibition is commonly meant the drop in the measured response relative to a control, in per cent. A word on the inhibition: it is the relative decrease from the control value, in per cent.

Assay [1] has as its system HUVEC. Nature of the assay: Compound was evaluated for inhibition of expression of VCAM-1 in IL-1 beta activated human umbilical vein endothelial cells(HUVECs) by using ELISA. It is filed as functional, cell-based. For orientation: An ELISA detects its analyte on a solid surface through an enzyme-linked reagent.
In assay [2] the test system is HUVEC. The experiment in a line: Compound was evaluated for inhibition of expression of ELAM-1 in IL-1 beta activated human umbilical vein endothelial cells(HUVECs) by using ELISA. It is filed as functional, cell-based.
The species named for a further assay is Mus musculus. The experiment in a line: Compound was evaluated for inhibition of neutrophil recruitment in a mouse skin immune complex model. More on the design: concentration or dose not given beside the values. It counts as functional.
Assay [3] deals with HUVEC. The experiment in a line: Compound was evaluated for inhibition of expression of ELAM-1 in IL-1 beta activated human umbilical vein endothelial cells(HUVECs) by using ELISA at 30 uM. It counts as functional.
The test system of assay [4] is HUVEC. Nature of the assay: Compound was evaluated for inhibition of expression of VCAM-1 in IL-1 beta activated human umbilical vein endothelial cells(HUVECs) by using ELISA at 30 uM. It is filed as functional.

With `CCc1nnc([S+]([O-])Cc2ncc(C)c(OC)c2C)o1` (configuration not stated), the 50% inhibitory concentration (IC50) worked out at 10 µM in the assay on HUVEC [1] and 12 µM in the assay on HUVEC [2].

In the assay filed under Mus musculus, `COc1c(C)cnc(C[S+]([O-])c2nnc(-c3ccccc3)o2)c1C` (configuration not stated) had an Inhibition of 25%. In addition, the values for the IC50 in the assay with HUVEC [1] and in the assay on HUVEC [2] were 6 µM and 7 µM, respectively.

Consider `COc1c(C)cnc(C[S+]([O-])c2nnc(-c3cccc(F)c3)o2)c1C` (configuration not stated), for which the IC50 turned out to be 12 µM in the assay with HUVEC [1] and 15 µM in the assay with HUVEC [2].

Take `Cc1nnc([S+]([O-])Cc2ccccc2)o1` (configuration not stated): the inhibition at 30 µM with HUVEC [3] was 20%; in the assay on HUVEC [4] it was 35%.

For the compound `COc1c(C)cnc(C[S+]([O-])c2nnc(-c3cccn3C)o2)c1C` (configuration not stated), the half-inhibitory concentration (IC50) came out at 4 µM in the assay on HUVEC [1] and 6 µM in the assay with HUVEC [2].

For the compound `COc1c(C)cnc(C[S+]([O-])c2nnc(-c3ccc(C(F)(F)F)cc3)o2)c1C` (configuration not stated), the inhibition at 30 µM in the assay on HUVEC [3] stood at 50%; in the assay with HUVEC [4], 70%.

For `CCCc1nnc([S+]([O-])Cc2ncc(C)c(OC)c2C)o1` (configuration not stated), the IC50 in the assay with HUVEC [1] is 8 µM; in the assay with HUVEC [2], 10 µM.

`Cc1nnc([S+]([O-])Cc2ccccn2)o1` (configuration not stated) had an Inhibition in the assay filed under Mus musculus of 40%. The inhibition at 30 µM in the assay on HUVEC [3] turned out to be 60%; in the assay on HUVEC [4] it was 80%.

Regarding `COc1ccnc2c1CCCCC2[S+]([O-])c1nnc(C)o1` (configuration not stated), the inhibition at 30 µM in the assay with HUVEC [3] and in the assay on HUVEC [4] was 0% throughout.

Take `COc1c(C)cnc(C[S+]([O-])c2nnc(C)o2)c1C` (configuration not stated): the Inhibition in the assay listed under Mus musculus is listed as 55%. The IC50 was determined as 8 µM in the assay with HUVEC [1] and 10 µM in the assay with HUVEC [2].

Take `COc1c(C)cnc(C[S+]([O-])c2nnc(-c3ccc(F)cc3)o2)c1C` (configuration not stated): the IC50 is 11 µM in the assay with HUVEC [1] and 14 µM with HUVEC [2].

`[O-][S+](Cc1ccccc1)c1nnc(-c2ccncc2)o1` (configuration not stated): the Inhibition in the assay filed under Mus musculus worked out at 55%. For the same compound, the IC50 came out at 3 µM in the assay on HUVEC [1] and 4 µM with HUVEC [2].

In turn, `[O-][S+](Cc1ccccc1)c1nnc(-c2cccnc2)o1` (configuration not stated) came in with an Inhibition in the assay listed under Mus musculus of 50%. The values for the 50% inhibitory concentration (IC50) with HUVEC [1] and in the assay on HUVEC [2] were 6 µM and 8 µM, respectively.

With `Cc1nnc([S+]([O-])c2c(C)cccc2C)o1` (configuration not stated), the inhibition at 30 µM in the assay with HUVEC [3] and in the assay on HUVEC [4] was 0% throughout.

As for `[O-][S+](Cc1ccccc1)c1nnc(-c2cccs2)o1` (configuration not stated), the Inhibition in the assay listed under Mus musculus was 40%. Besides, the IC50 in the assay on HUVEC [1] was found to be 6 µM; in the assay with HUVEC [2], 7 µM.

Turning to `CCCCCc1nnc([S+]([O-])Cc2ncc(C)c(OC)c2C)o1` (configuration not stated), the inhibition at 30 µM in the assay with HUVEC [3] was determined as 45%; in the assay on HUVEC [4], 70%.

Turning to `COc1c(C)cnc(C[S+]([O-])c2nnc(-c3cccc(C(F)(F)F)c3)o2)c1C` (configuration not stated), the figures for the inhibition at 30 µM in the assay with HUVEC [3] and in the assay on HUVEC [4] were 70% and 85%, respectively.

As to `CCCCc1nnc([S+]([O-])Cc2ncc(C)c(OC)c2C)o1` (configuration not stated), the inhibition at 30 µM came to 60% in the assay with HUVEC [3] and 85% with HUVEC [4].

Consider `COc1c(C)cnc(C[S+]([O-])c2nnc(-c3ccccc3O)o2)c1C` (configuration not stated), for which the Inhibition in the assay listed under Mus musculus was found to be 20%. In addition, the IC50 in the assay with HUVEC [1] was 8 µM; in the assay on HUVEC [2], 10 µM.

For the compound `[O-][S+](Cc1ccccc1)c1nnc(-c2ccccn2)o1` (configuration not stated), in the assay filed under Mus musculus, the Inhibition is on record as 80%. The IC50 worked out at 4 µM in the assay on HUVEC [1] and 5 µM in the assay with HUVEC [2].

In the case of `COc1c(C)cnc(C[S+]([O-])c2nnc(-c3cccs3)o2)c1C` (configuration not stated), the IC50 with HUVEC [1] stood at 3 µM; in the assay on HUVEC [2], 5 µM.

For the compound `[O-][S+](Cc1ccccc1)c1nnc(-c2ccccc2O)o1` (configuration not stated), the IC50 in the assay with HUVEC [1] amounted to 6 µM; in the assay on HUVEC [2] it was 8 µM.

The record behind these values is ChEMBL document CHEMBL1128925, “Novel inhibitors of cell adhesion molecule expression” (Bioorg Med Chem Lett, 1996).
